Reference: US7758886B2, “Pharmaceutical aerosol composition” (Pari GmbH, priority 2003, dated 2010)
In brackets after ≈: the same amount, converted by molar mass.

Experiments:
[1] = Saturation solubility of budesonide in buffered aqueous tyloxapol / DMPC solutions (0.22 μm filtrate); format: physicochemical; settings: for solubility: buffered aqueous tyloxapol/DMPC solution, aqueous with cosolvent or surfactant or cyclodextrin, thermodynamic from solid
Protocol: Buffered aqueous solutions of tyloxapol, DMPC and tyloxapol in a mixture with DMPC were prepared. The saturation solubility of budesonide in these solutions was measured by adding an excess of budesonide and treating the sample with heat and ultrasound and subsequently allowing it to stand for equilibration. The equilibrated samples were filtered through a membrane filter with a poor width of 0.22 μm and the content of budesonide in the filtrate was determined.

[2] = Colloidal solubilization of corticosteroid with non-ionic surfactant and lecithin (Lipoid S 100); format: physicochemical; settings: for solubility: pH 4.5, aqueous with cosolvent or surfactant or cyclodextrin
Protocol: In analogy to example 2, colloidal solutions of budesonide were prepared using polysorbate 80 as non-ionic surfactant component (instead of tyloxapol) and lecithin of the commercial grade, Lipoid S 100, as phospholipid component. Citric acid and sodium citrate were used as buffer system to adjust the pH to 4.5. Sodium chloride (0.846% w/w) was used as osmotic excipient. Disodium edetate (0.01% w/w) was incorporated as stabilizer preventing oxidation.
The taste of the samples was acceptable. The average diameter of the colloidal structures ranged from about 40 to about 50 nm, with polydispersity indices of 0.2 to 0.3. The colloidal solution with the lowest concentration of the non-ionic surfactant and phospholipid component was also investigated by small angle X-ray scattering, which indicated the presence of colloidal structures which were probably in the form of unilamellar liposomes.
(§1) In analogy to example 9, colloidal solutions of budesonide were prepared using vitamin E TPGS as non-ionic surfactant component and lecithin of the commercial grade, Lipoid S 100, as phospholipid component. The other excipients and their content remained the same as in example 9.
The taste of the samples was acceptable. The particles size of the colloidal structures was about 50 to 55 nm, with polydispersity indices of 0.2 to 0.3.
as §1, with “using both” for “using”, “TPGS and polysorbate 80 in combination” for “TPGS”
In analogy to example 9, colloidal solutions of budesonide were prepared using macrogol-15-hydroxystearate as non-ionic surfactant component and lecithin of the commercial grade, Lipoid S 100, as phospholipid component. The other excipients and their content remained the same as in example 9.
In analogy to example 9, colloidal solutions of were prepared using polysorbate 80 as non-ionic surfactant component and lecithin of the commercial grade, Lipoid S 100, as phospholipid component. However, fluticasone propionate was used instead of budesonide as poorly water soluble active agent. The other excipients and their content remained the same as in example 9.

For `CCCC1O[C@@H]2C[C@H]3[C@@H]4CCC5=CC(=O)C=C[C@]5(C)[C@H]4[C@@H](O)C[C@]3(C)[C@]2(C(=O)CO)O1` (stereo partly shown) [Budesonide, budesonide], the solubility ([1]; Tyloxapol 0 wt %, DMPC 1 wt %) was 20 µg/mL (≈ 46.5 µM), the solubility ([1]; Tyloxapol 1 wt %, DMPC 0.5 wt %) was 268 µg/mL (≈ 622 µM) and the solubility ([1]; Tyloxapol 1.5 wt %, DMPC 0 wt %) was 204 µg/mL (≈ 474 µM). The “Saturation concentration of budesonide in DMPC solutions” value ([1]; on further increasing the DMPC content) was “could not be increased”, the solubility ([2]; Polysorbate 80 0.10 wt.%, Lipoid S100 1.0 wt.%, pH 4.5, read-out: Budesonide solubilized) was 360 µg/mL and the solubility ([2]; Polysorbate 80 0.15 wt.%, Lipoid S100 1.5 wt.%, pH 4.5, read-out: Budesonide solubilized) was 430 µg/mL. It also gave a solubility ([2]; Polysorbate 80 0.25 wt.%, Lipoid S100 1.5 wt.%, pH 4.5, read-out: Budesonide solubilized) of 470 µg/mL, a solubility ([2]; Polysorbate 80 0.40 wt.%, Lipoid S100 1.5 wt.%, pH 4.5, read-out: Budesonide solubilized) of 500 µg/mL and a solubility ([2]; Polysorbate 80 0.50 wt.%, Lipoid S100 2.0 wt.%, pH 4.5, read-out: Budesonide solubilized) of 830 µg/mL. The solubility ([2]; Polysorbate 80 0.50 wt.%, Lipoid S100 3.0 wt.%, pH 4.5, read-out: Budesonide solubilized) was 1090 µg/mL, the solubility ([2]; Solutrol HS 15 0.10 wt.%, Lipoid S100 1.5 wt.%, read-out: Budesonide solubilized) was 430 µg/mL and the solubility ([2]; Solutrol HS 15 0.25 wt.%, Lipoid S100 1.5 wt.%, read-out: Budesonide solubilized) was 470 µg/mL. For the same molecule, the solubility ([2]; Solutrol HS 15 0.50 wt.%, Lipoid S100 1.5 wt.%, read-out: Budesonide solubilized) was 480 µg/mL, the solubility ([2]; Vitamin E TPGS 0.10 wt.%, Lipoid S100 1.0 wt.%, read-out: Budesonide solubilized) was 370 µg/mL and the solubility ([2]; Vitamin E TPGS 0.10 wt.%, Lipoid S100 1.5 wt.%, read-out: Budesonide solubilized) was 440 µg/mL. The solubility ([2]; Vitamin E TPGS 0.25 wt.%, Lipoid S100 1.5 wt.%, read-out: Budesonide solubilized) was 460 µg/mL, the solubility ([2]; Vitamin E TPGS 0.50 wt.%, Lipoid S100 1.5 wt.%, read-out: Budesonide solubilized) was 480 µg/mL and the solubility ([2]; Vitamin E TPGS 0.50 wt.%, Lipoid S100 2.0 wt.%, read-out: Budesonide solubilized) was 800 µg/mL. The solubility ([2]; vitamin E TPGS 0.04 wt.-%, polysorbate 80 0.06 wt.-%, lecithin 1.0 wt.-%, read-out: Budesonide colloidally solubilized concentration) was 380 µg/mL and the solubility ([2]; vitamin E TPGS 0.2 wt.-%, polysorbate 80 0.3 wt.-%, lecithin 3.0 wt.-%, read-out: Budesonide colloidally solubilized concentration) was 950 µg/mL.
With `CCC(=O)O[C@]1(C(=O)SCF)[C@H](C)C[C@H]2[C@@H]3C[C@H](F)C4=CC(=O)C=C[C@]4(C)[C@@]3(F)[C@@H](O)C[C@@]21C` [Fluticasone prop., fluticasone propionate] the Fluticasone prop. solubilized ([2]; Polysorbate 80 0.10 wt.%, Lipoid S100 1.0 wt.%) was 0.07 mg/mL and the solubility ([2]; Polysorbate 80 0.50 wt.%, Lipoid S100 3.0 wt.%, read-out: Fluticasone prop. solubilized) was 180 µg/mL.
